Patent US6069132A, “Phosphazole compounds” (priority 1997, dated 2000)
Converted amounts (≈) assume the structure as drawn. Like-named read-outs stand apart in the source and are kept apart here.

Columns and labels:
vaccinia virus = settings: in culture; cited from earlier work
[1] = tested on: murine leukemia (L1210) cells; settings: in culture; cited from earlier work
[2] = tested on: murine mammary carcinoma (FM3) cells; settings: in culture; cited from earlier work
[3] = tested on: human B-lymphoblast (Raji) cells; settings: in culture; cited from earlier work
coxsackie B4 virus = settings: in culture; cited from earlier work
[4] = tested on: vesicular stomatitis virus; settings: in culture; cited from earlier work
[5] = tested on: human T-lymphoblast (Molt-4F) cells; settings: in culture; cited from earlier work
HCMV (Town strain) = test: HCMV plaque reduction (CPE) assay in MRC-5 cells; assay type: cell-based, human cytomegalovirus; settings: Human betaherpesvirus 5, MRC5; Table 4; read-out: IC50 HCMV
Procedure: The adenine analog phosphazole (compound T70241) was assayed for antiviral activity using a HCMV plaque reduction assay, in accordance with known methods such as that described in U.S. Pat. No. 5,446,045.
(§1) Cell Culture. Vero (African Green Monkey kidney cells) and MRC-5 (diploid Human Embryonic Lung fibroblasts) cells were obtained from the American Type Culture Collection (ATCC) and were grown in minimal essential medium (MEM) with Earl's salts and glutamine (GIBCO BRL, Life Technologies, Inc.) with 10% heat inactivated fetal bovine serum (GIBCO BRL) and penicillin (100 μg/mL)/streptomycin (100 μg/mL).
CMV Cytopathic Effect (CPE) Assay. Assays were performed essentially as described by Lewis et al. (111), which report is incorporated herein by reference. MRC-5 cells (100,000 cells/well) were seeded in 24-well plates overnight. Medium was then removed and wells were rinsed once with 250 μL of 2% FCS-MEM before adding 40-50 pfu of HCMV (Town strain) to each well. After 2 hours of virus adsorption, the medium was removed and the cells were rinsed once with 2% FCS-MEM. Varying concentrations of the phosphazole compound in the culture medium (1 mL) was then added to appropriate wells and plates were incubated for 5-6 days at 37° C. in a humidified 5% CO2 atmosphere. Each concentration was tested in duplicate wells.
The extent of the plaque reduction was quantitated by removing the media and adding 200 μL of 0.1% crystal violet in 20% methanol to all wells. The crystal violet was then removed after 10 min staining at room temperature by rinsing in the sink with tap water and the plates dried overnight. The plaques were then counted using a Nikon inverted microscope.

[6] = Cytotoxicity on growing MRC-5 cells (MTS); assay type: cell-based, human; settings: human, mrc-5 cells; Table 4; 50% inhibition of logphase growing cells; read-out: TC50 Growing MRC-5
Procedure: as §1
(§2) Cytotoxicity Analysis. The cytotoxicity of the compound was assayed using few the CellTiter 96™ Aqueous Non-Radioactive Cell Proliferation (MTS) Assay (Promega). Briefly, viable cell number was determined by trypan blue staining and cells (MRC-5 and Vero) were resuspended in minimal essential medium (MEM) supplemented with 10% FBS (GIBCO). Eighty microliters of cell suspension (1.7×10^4 cells/well) was dispensed onto a 96-well microtiter plates. At this time 20 μL of drug (or control) was added to appropriate wells. Each concentration was assayed in quadruplicate. The plates were incubated at 37° C. in a humidified 5% CO2 atmosphere for 4 days and MTS assay was performed according to the manufacturer's instructions. The average absorbence of the sample was graphed for each concentration and the data obtained was used to calculate TC50 (the concentration necessary to give one-half maximum growth) for each compound.

normal cells = settings: relative to antiviral concentrations; cited from earlier work
[7] = tested on: bone marrow progenitor cells; settings: cited from earlier work
[8] = Cytotoxicity on growing Vero cells (MTS); assay type: cell-based; settings: african green monkey, Table 4, 50% inhibition of logphase growing cells, read-out: TC50 Growing Vero
Procedure: as §1, §2

[9] = Cytotoxicity on static MRC-5 cells; assay type: cell-based; settings: human, Table 4, 50% cell death (static cells), read-out: TC50 Static MRC-5
Procedure: as §1, §2

herpesviruses = settings: cited from earlier work
[10] = cited from earlier work
[11] = Cytotoxicity on static Vero cells; assay type: cell-based; settings: african green monkey, Table 4, 50% cell death (static cells), read-out: TC50 Static Vero
Procedure: as §1, §2

Structure (SMILES): CCOP(=O)(OCC)c1nc2c(Cl)ncnc2n1[C@@H]1O[C@H](CO)[C@@H](O)[C@H]1O [compound 1, Diethyl 6-chloro-9-(β-D-ribofuranosyl)purine-8-phosphate]
- activity against vaccinia virus (vaccinia virus): significant activity
- inhibition of proliferation of L1210 [1]: inhibitory
- inhibition of proliferation of FM3 [2]: inhibitory
- inhibition of proliferation of Raji [3]: inhibitory
- activity against coxsackie B4 virus (coxsackie B4 virus): significant activity
- activity against vesicular stomatitis virus [4]: significant activity
- inhibition of proliferation of Molt-4F [5]: inhibitory

Structure (SMILES): Nc1nc(O)c2ncn(COC(CO)CO)c2n1 [DHPG, ganciclovir, reference compound]
- IC50 (HCMV (Town strain)): 3.5 µg/mL (≈ 13.7 µM)
- CC50 at 96 h [6]: > 250 µg/mL
- concentration needed to inhibit growth of normal cells (normal cells): much higher concentrations are needed to inhibit cell growth of normal cells
- toxicity to bone marrow progenitor cells [7]: toxic to bone marrow progenitor cells in culture
- CC50 at 96 h [8]: > 250 µg/mL
- CC50 at 96 h [9]: > 250 µg/mL
- activity against herpesviruses (herpesviruses): potent inhibitor of most human and animal herpes viruses in culture
- clinical toxicity ([10]; human, in vivo): most clinical toxicity is myelosuppression
- CC50 at 96 h [11]: > 250 µg/mL

Structure (SMILES): O=C(O)P(=O)(O)O [foscarnet]
- activity against herpesviruses (herpesviruses): observed activity against all known human herpesviruses
- clinical toxicity ([10]; patients): nephrotoxicity, hypocalcemia, and seizures in some patients
